From patent US10294202B2, “Pyrrolidinones as herbicides” (FMC Corporation, priority 2013, dated 2019)

What was measured:
barnyardgrass [1] = assay: Test C pre-/postemergence herbicide test; type: in vivo, Echinochloa crus-galli
How it was run: (§1)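 Two application timings ran in parallel with identically formulated test chemicals (non-phytotoxic solvent, surfactant included): spray on seeded loam–sand soil, and spray on emerged plants 2 to 18 cm high. Evaluation at 13 to 15 days compared each species with controls, rated from 0 up to 100.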

waterhemp = assay: Test C pre-/postemergence herbicide test; type: in vivo, Amaranthus rudis
How it was run: as §1

lambsquarters = assay: Test C pre-/postemergence herbicide test; type: in vivo, Chenopodium album
How it was run: as §1

nutsedge, yellow = assay: Test C pre-/postemergence herbicide test; type: in vivo, Cyperus esculentus
How it was run: as §1

corn [2] = assay: Test C pre-/postemergence herbicide test; type: in vivo, Zea mays
How it was run: as §1

soybean = assay: Test C pre-/postemergence herbicide test; type: in vivo, Glycine max
How it was run: as §1

ducksalad = assay: Test B flooded paddy test; type: in vivo, Heteranthera limosa; settings: 500 g ai/ha, Flood; scale of 0 to 100 where 0 is no effect and 100 is complete control
How it was run: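 Plants were grown to the 2-leaf stage, then pots were flooded to 3 cm above the soil and compound was applied directly into the paddy water, with that depth held throughout. After 13 to 15 days in a greenhouse, injury was rated visually against untreated controls on a 0 to 100 scale (100 = complete control).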

giant foxtail = assay: Test A pre-/postemergence herbicide test; type: in vivo, Setaria faberii
How it was run: (§2)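 Directed soil spray to seeded pots (preemergence) or spray onto one- to two-leaf seedlings 2–10 cm tall (postemergence); loam/sand substrate throughout. Evaluated visually after about 10 days against untreated plants, 0 = no effect, 100 = complete control.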

barnyardgrass [3] = assay: Test A pre-/postemergence herbicide test; type: in vivo, Echinochloa crus-galli
How it was run: as §2

corn [4] = assay: Test A pre-/postemergence herbicide test; type: in vivo, Zea mays; settings: Postemergence
How it was run: as §2

ryegrass, Italian = assay: Test C pre-/postemergence herbicide test; type: in vivo, Lolium multiflorum
How it was run: as §1

[5] = Postemergence, 31 g ai/ha, scale 0 to 100 (0 no effect, 100 complete control)
[6] = Postemergence, 62 g ai/ha, scale 0 (no effect) to 100 (complete control)
[7] = Postemergence, 125 g ai/ha, scale 0 to 100 (0 no effect, 100 complete control)
[8] = Postemergence, 250 g ai/ha, scale 0 to 100 (0 no effect, 100 complete control)
[9] = Preemergence, 31 g ai/ha, scale 0 to 100, 0 is no effect and 100 is complete control
[10] = Preemergence, 62 g ai/ha, scale 0 to 100 (0 no effect, 100 complete control)
[11] = Preemergence, 125 g ai/ha, scale 0 to 100 (0 no effect, 100 complete control)
[12] = Postemergence, 125 g ai/ha, visual rating on 0 to 100 scale (0 no effect, 100 complete control), approx. 10 days
[13] = Postemergence, 500 g ai/ha, 0 to 100 scale (0 no effect, 100 complete control)
[14] = Preemergence, 125 g ai/ha, 0 to 100 scale where 0 is no effect and 100 is complete control
[15] = Preemergence, 500 g ai/ha, visual rating on 0 to 100 scale (0 no effect, 100 complete control)
[16] = 125 g ai/ha, visual rating on 0 to 100 scale (0 no effect, 100 complete control), approx. 10 days
[17] = 500 g ai/ha, 0 to 100 scale (0 no effect, 100 complete control)
[18] = Postemergence, 16 g ai/ha, scale 0 to 100 (0 no effect, 100 complete control)
[19] = Preemergence, 16 g ai/ha, scale 0 to 100

## CN1CC(c2ccc(F)c(F)c2)C(C(=O)Nc2ccccc2F)C1=O (centres unmarked) [Compound 302]
Barnyardgrass [1]; [5]
  Plant response rating, Barnyardgrass: 0
Barnyardgrass [1]; [6]
  Plant response rating, Barnyardgrass: 20
Barnyardgrass [1]; [7]
  Plant response rating, Barnyardgrass: 40
Barnyardgrass [1]; [8]
  Plant response rating, Barnyardgrass: 90
Barnyardgrass [1]; [9]
  Barnyardgrass plant response rating: 90
Barnyardgrass [1]; [10]
  Barnyardgrass plant response rating: 85
Barnyardgrass [1]; [11]
  Plant response rating, Barnyardgrass: 100
Barnyardgrass [1]; Preemergence, 250 g ai/ha
  Plant response rating (scale of 0 to 100; 0 is no effect, 100 is complete control), Barnyardgrass: 100
waterhemp; [5]
  Plant response rating, Waterhemp: 10
waterhemp; [6]
  Plant response rating, Waterhemp: 20
waterhemp; [7]
  Plant response rating, Waterhemp: 20
waterhemp; [8]
  Plant response rating, Waterhemp: 25
waterhemp; [9]
  Waterhemp plant response rating: 30
waterhemp; [10]
  Waterhemp plant response rating: 35
waterhemp; [11]
  Plant response rating, Waterhemp: 65
waterhemp; Preemergence, 250 g ai/ha
  Plant response rating (scale of 0 to 100), Waterhemp: 55
lambsquarters; [5]
  Plant response rating, Lambsquarters: 10
lambsquarters; [6]
  Plant response rating, Lambsquarters: 20
lambsquarters; [7]
  Plant response rating, Lambsquarters: 60
lambsquarters; [8]
  Plant response rating, Lambsquarters: 70
lambsquarters; [9]
  Lambsquarters plant response rating: 0
lambsquarters; [10]
  Lambsquarters plant response rating: 0
lambsquarters; [11]
  Plant response rating, Lambsquarters: 60
lambsquarters; Preemergence, 250 g ai/ha
  Plant response rating (scale of 0 to 100), Lambsquarters: 65
nutsedge, yellow; [5]
  Plant response rating, Nutsedge, Yellow: 0
nutsedge, yellow; [6]
  Plant response rating, Nutsedge, Yellow: 0
nutsedge, yellow; [7]
  Plant response rating, Nutsedge, Yellow: 0
nutsedge, yellow; [8]
  Plant response rating, Nutsedge, Yellow: 20
nutsedge, yellow; [9]
  Nutsedge, Yellow plant response rating: 0
nutsedge, yellow; [10]
  Nutsedge, Yellow plant response rating: 0
nutsedge, yellow; [11]
  Plant response rating, Nutsedge, Yellow: 0
nutsedge, yellow; Preemergence, 250 g ai/ha
  Plant response rating (scale of 0 to 100), Nutsedge, Yellow: 10
Corn [2]; [5]
  Plant response rating, Corn: 0
Corn [2]; [6]
  Plant response rating, Corn: 0
Corn [2]; [7]
  Plant response rating, Corn: 0
Corn [2]; [8]
  Plant response rating, Corn: 0
Corn [2]; [9]
  Corn plant response rating: 0
Corn [2]; [10]
  Corn plant response rating: 0
Corn [2]; [11]
  Plant response rating, Corn: 0
Corn [2]; Preemergence, 250 g ai/ha
  Plant response rating (scale of 0 to 100), Corn: 50
soybean; [5]
  Plant response rating, Soybean: 0
soybean; [6]
  Plant response rating, Soybean: 0
soybean; [7]
  Plant response rating, Soybean: 0
soybean; [8]
  Plant response rating, Soybean: 65
soybean; [9]
  Soybean plant response rating: 0
soybean; [10]
  Soybean plant response rating: 30
soybean; [11]
  Plant response rating, Soybean: 0
soybean; Preemergence, 250 g ai/ha
  Plant response rating (scale of 0 to 100), Soybean: 0
ducksalad
  Plant response rating, Ducksalad: 98
Giant foxtail; [12]
  Plant response rating, Foxtail, Giant: 80
Giant foxtail; [13]
  Plant response rating, Foxtail, Giant: 80
Giant foxtail; [14]
  Plant response rating, Foxtail, Giant: 90
Giant foxtail; [15]
  Foxtail, Giant plant response rating: 90
Barnyardgrass [3]; [12]
  Plant response rating, Barnyardgrass: 90
Barnyardgrass [3]; [13]
  Plant response rating, Barnyardgrass: 90
Barnyardgrass [3]; [14]
  Plant response rating, Barnyardgrass: 90
Barnyardgrass [3]; [15]
  Barnyardgrass plant response rating: 90
Corn [4]; [16]
  Plant response rating, Corn: 0
Corn [4]; [17]
  Plant response rating, Corn: 40
ryegrass, Italian; [5]
  Plant response rating, Ryegrass, Italian: 0
ryegrass, Italian; [6]
  Plant response rating, Ryegrass, Italian: 0
ryegrass, Italian; [7]
  Plant response rating, Ryegrass, Italian: 0
ryegrass, Italian; [8]
  Plant response rating, Ryegrass, Italian: 0
ryegrass, Italian; [9]
  Ryegrass, Italian plant response rating: 0
ryegrass, Italian; [10]
  Ryegrass, Italian plant response rating: 0
ryegrass, Italian; [11]
  Plant response rating, Ryegrass, Italian: 5
ryegrass, Italian; Preemergence, 250 g ai/ha
  Plant response rating (scale of 0 to 100), Ryegrass, Italian: 40

## CN1CC(c2ccc(C(F)(F)F)cc2)C(C(=O)Nc2ccccc2F)C1=O (centres unmarked) [Compound 304]
Barnyardgrass [1]; [18]
  Plant response rating, Barnyardgrass: 0
Barnyardgrass [1]; [5]
  Plant response rating, Barnyardgrass: 0
Barnyardgrass [1]; [6]
  Plant response rating, Barnyardgrass: 0
Barnyardgrass [1]; [7]
  Plant response rating, Barnyardgrass: 40
Barnyardgrass [1]; [9]
  Barnyardgrass plant response rating: 85
Barnyardgrass [1]; [10]
  Barnyardgrass plant response rating: 90
Barnyardgrass [1]; [11]
  Plant response rating, Barnyardgrass: 95
Barnyardgrass [1]; [19]
  Plant response rating, Barnyardgrass: 85
waterhemp; [18]
  Plant response rating, Waterhemp: 40
waterhemp; [5]
  Plant response rating, Waterhemp: 50
waterhemp; [6]
  Plant response rating, Waterhemp: 65
waterhemp; [7]
  Plant response rating, Waterhemp: 80
waterhemp; [9]
  Waterhemp plant response rating: 75
waterhemp; [10]
  Waterhemp plant response rating: 80
waterhemp; [11]
  Plant response rating, Waterhemp: 85
waterhemp; [19]
  Plant response rating, Waterhemp: 70
lambsquarters; [18]
  Plant response rating, Lambsquarters: 65
lambsquarters; [5]
  Plant response rating, Lambsquarters: 35
lambsquarters; [6]
  Plant response rating, Lambsquarters: 75
lambsquarters; [7]
  Plant response rating, Lambsquarters: 70
lambsquarters; [9]
  Lambsquarters plant response rating: 65
lambsquarters; [10]
  Lambsquarters plant response rating: 70
lambsquarters; [11]
  Plant response rating, Lambsquarters: 80
lambsquarters; [19]
  Plant response rating, Lambsquarters: 30
nutsedge, yellow; [18]
  Plant response rating, Nutsedge, Yellow: 0
nutsedge, yellow; [5]
  Plant response rating, Nutsedge, Yellow: 0
nutsedge, yellow; [6]
  Plant response rating, Nutsedge, Yellow: 0
nutsedge, yellow; [7]
  Plant response rating, Nutsedge, Yellow: 0
nutsedge, yellow; [9]
  Nutsedge, Yellow plant response rating: 0
nutsedge, yellow; [10]
  Nutsedge, Yellow plant response rating: 25
nutsedge, yellow; [11]
  Plant response rating, Nutsedge, Yellow: 0
nutsedge, yellow; [19]
  Plant response rating, Nutsedge, Yellow: 0
Corn [2]; [18]
  Plant response rating, Corn: 0
Corn [2]; [5]
  Plant response rating, Corn: 0
Corn [2]; [6]
  Plant response rating, Corn: 0
Corn [2]; [7]
  Plant response rating, Corn: 5
Corn [2]; [9]
  Corn plant response rating: 0
Corn [2]; [10]
  Corn plant response rating: 40
Corn [2]; [11]
  Plant response rating, Corn: 65
Corn [2]; [19]
  Plant response rating, Corn: 0
soybean; [18]
  Plant response rating, Soybean: 0
soybean; [5]
  Plant response rating, Soybean: 0
soybean; [6]
  Plant response rating, Soybean: 5
soybean; [7]
  Plant response rating, Soybean: 10
soybean; [9]
  Soybean plant response rating: 0
soybean; [10]
  Soybean plant response rating: 0
soybean; [11]
  Plant response rating, Soybean: 0
soybean; [19]
  Plant response rating, Soybean: 0
ducksalad
  Plant response rating, Ducksalad: 100
Giant foxtail; [12]
  Plant response rating, Foxtail, Giant: 80
Giant foxtail; [13]
  Plant response rating, Foxtail, Giant: 80
Giant foxtail; [14]
  Plant response rating, Foxtail, Giant: 90
Giant foxtail; [15]
  Foxtail, Giant plant response rating: 90
Barnyardgrass [3]; [12]
  Plant response rating, Barnyardgrass: 80
Barnyardgrass [3]; [13]
  Plant response rating, Barnyardgrass: 90
Barnyardgrass [3]; [14]
  Plant response rating, Barnyardgrass: 90
Barnyardgrass [3]; [15]
  Barnyardgrass plant response rating: 90
Corn [4]; [16]
  Plant response rating, Corn: 30
Corn [4]; [17]
  Plant response rating, Corn: 70
ryegrass, Italian; [18]
  Plant response rating, Ryegrass, Italian: 0
ryegrass, Italian; [5]
  Plant response rating, Ryegrass, Italian: 0
ryegrass, Italian; [6]
  Plant response rating, Ryegrass, Italian: 5
ryegrass, Italian; [7]
  Plant response rating, Ryegrass, Italian: 0
ryegrass, Italian; [9]
  Ryegrass, Italian plant response rating: 30
ryegrass, Italian; [10]
  Ryegrass, Italian plant response rating: 75
ryegrass, Italian; [11]
  Plant response rating, Ryegrass, Italian: 40
ryegrass, Italian; [19]
  Plant response rating, Ryegrass, Italian: 10
